The values below are quoted from earlier work in patent US20250114373A1, “[…] INSERT COMPRISING AN ANTIMICROBIAL AGENT” (OCULAR THERAPEUTIX, INC., priority 2022, published 2025).

Some test systems named below: S. epidermidis; H. influenzae; S. pneumoniae; S. aureus.
What all share (settings): values from Proksch, 2009

As to `N[C@@H]1CCCCN(c2c(F)cc3c(=O)c(C(=O)O)cn(C4CC4)c3c2Cl)C1` [Besifloxacin, (R)-7-(3-aminohexahydro-1H-azepin-1-yl)-8-chloro-1-cyclopropyl-6-fluoro-1,4-dihydro-4-oxo-3-quinolinecarboxylic acid], the MIC90 result was “(MIC90 of 0.5 μg/mL” in the data set on S. epidermidis, “(MIC90 of 0.06 μg/mL” in the data set on H. influenzae, “(MIC90 of 0.125 μg/mL” in the data set on S. pneumoniae and “(MIC90 of 0.25 μg/mL” in the data set with S. aureus.
